# What was measured:
# Assay type in all cases: in vivo
# [1] = system: ABUTH: Abutilon theophrasti; experiment: Pre-emergence herbicidal action; conditions: Table C1, pre-emergence, 80 g/ha, scored visually after about 3 weeks
# From the text: (§1) Seeds of monocotyledonous and dicotyledonous weed plants and crop plants are placed in plastic or wood fiber pots and covered with soil. The compounds of the invention, formulated in the form of wettable powders (WP) or as emulsion concentrates (EC), are then applied onto the surface of the covering soil as aqueous suspension or emulsion with addition of 0.5% additive at a water application rate of […] (converted). After the treatment, the pots are placed in a greenhouse and kept under good growth conditions for the trial plants. After about 3 weeks, the effect of the preparations is scored visually in comparison with untreated controls as percentages. For example, 100% activity=the plants have died, 0% activity=like control plants. [table]
# [2] = system: ALOMY: Alopecurus myosuroides; experiment: Pre-emergence herbicidal action
# From the text: as §1
# [3] = system: AMARE: Amaranthus retroflexus; experiment: Pre-emergence herbicidal action
# From the text: as §1
# AVEFA: Avena fatua [4] = experiment: Pre-emergence herbicidal action
# From the text: as §1
# [5] = system: ECHCG: Echinochloa crus-galli; experiment: Pre-emergence herbicidal action; conditions: Table C1, pre-emergence, 80 g/ha, scored visually after about 3 weeks
# From the text: as §1
# HORMU: Hordeum murinum [6] = experiment: Pre-emergence herbicidal action; conditions: Table C1, pre-emergence, 80 g/ha, scored visually after about 3 weeks
# From the text: as §1
# LOLRI: Lolium rigidum [7] = experiment: Pre-emergence herbicidal action; conditions: Table C1, pre-emergence, 80 g/ha, scored visually after about 3 weeks
# From the text: as §1
# [8] = system: MATIN: Matricaria inodora; experiment: Pre-emergence herbicidal action; conditions: Table C1, pre-emergence, 80 g/ha, scored visually after about 3 weeks
# From the text: as §1
# PHBPU: Ipomoea purpurea = experiment: Pre-emergence herbicidal action; conditions: Table C1, pre-emergence, 80 g/ha, scored visually after about 3 weeks
# From the text: as §1
# [9] = system: POLCO: Polygonum convolvulus; experiment: Pre-emergence herbicidal action; conditions: Table C1, pre-emergence, 80 g/ha, scored visually after about 3 weeks
# From the text: as §1
# SETVI: Setaria viridis = experiment: Pre-emergence herbicidal action
# From the text: as §1
# STEME: Stellaria media [10] = experiment: Pre-emergence herbicidal action
# From the text: as §1
# VERPE: Veronica persica [11] = experiment: Pre-emergence herbicidal action
# From the text: as §1
# VIOTR: Viola tricolor = experiment: Pre-emergence herbicidal action
# From the text: as §1
# [12] = system: ABUTH: Abutilon theophrasti; experiment: Post-emergence herbicidal action; conditions: Second Table C3, superiority with respect to WO 2012/130798, post-emergence, 80 g/ha
# Method: (§2) [table] Seeds of monocotyledonous and dicotyledonous weeds and crop plants are placed in sandy loam in plastic or wood-fiber pots, covered with soil and cultivated in a greenhouse under controlled growth conditions. 2 to 3 weeks after sowing, the test plants are treated at the one-leaf stage. The compounds of the invention, formulated in the form of wettable powders (WP) or as emulsion concentrates (EC), are then sprayed onto the green parts of the plants as aqueous suspension or emulsion with addition of 0.5% additive at a water application rate of […] (converted). After the test plants had been kept in the greenhouse under optimum growth conditions for about 3 weeks, the activity of the preparations is rated visually in comparison to untreated controls. For example, 100% activity=the plants have died, 0% activity=like control plants.
# [13] = system: ALOMY: Alopecurus myosuroides; experiment: Post-emergence herbicidal action; conditions: Table C2, post-emergence, dosage 320 (0.32 kg of active substance per hectare), rated visually after about 3 weeks
# Method: as §2
# [14] = system: AMARE: Amaranthus retroflexus; experiment: Post-emergence herbicidal action; conditions: Table C2, post-emergence, dosage 320 (0.32 kg of active substance per hectare), rated visually after about 3 weeks
# Method: as §2
# AVEFA: Avena fatua [15] = experiment: Post-emergence herbicidal action; conditions: Table C2, post-emergence, dosage 320 (0.32 kg of active substance per hectare), rated visually after about 3 weeks
# Method: as §2
# [16] = system: ECHCG: Echinochloa crus-galli; experiment: Post-emergence herbicidal action; conditions: Table C2, post-emergence, dosage 320 (0.32 kg of active substance per hectare), rated visually after about 3 weeks
# Method: as §2
# HORMU: Hordeum murinum [17] = experiment: Post-emergence herbicidal action; conditions: Table C2, post-emergence, dosage 320 (0.32 kg of active substance per hectare), rated visually after about 3 weeks
# Method: as §2
# LOLRI: Lolium rigidum [18] = experiment: Post-emergence herbicidal action; conditions: Table C2, post-emergence, dosage 320 (0.32 kg of active substance per hectare), rated visually after about 3 weeks
# Method: as §2
# [19] = system: POLCO: Polygonum convolvulus; experiment: Post-emergence herbicidal action; conditions: Table C2, post-emergence, dosage 320 (0.32 kg of active substance per hectare), rated visually after about 3 weeks
# Method: as §2
# STEME: Stellaria media [20] = experiment: Post-emergence herbicidal action
# Method: as §2
# VERPE: Veronica persica [21] = experiment: Post-emergence herbicidal action; conditions: Table C2, post-emergence, dosage 320 (0.32 kg of active substance per hectare), rated visually after about 3 weeks
# Method: as §2
# [22] = Second Table C4, superiority with respect to WO 2012/130798, pre-emergence, 20 g/ha
# [23] = Table C1, pre-emergence, 80 g/ha, scored visually after about 3 weeks
compound,measurement,setting,value
CCOC(=O)C1CCC(NC(=O)C2(C(F)(F)F)CC(c3cc(F)cc(F)c3)=NO2)C1 (mixture of isomers) [Example I-29],Herbicidal action against [%] ABUTH,[1],70%
same,Herbicidal action against [%] ALOMY,[2]; [22],90%
same,Herbicidal action against [%] ALOMY,[2]; [23],100%
same,Herbicidal action against [%] AMARE,[3]; [22],100%
same,Herbicidal action against [%] AMARE,[3]; [23],100%
same,Herbicidal action against [%] AVEFA,AVEFA: Avena fatua [4]; [22],70%
same,Herbicidal action against [%] AVEFA,AVEFA: Avena fatua [4]; [23],80%
same,Herbicidal action against [%] ECHCG,[5],90%
same,Herbicidal action against [%] HORMU,HORMU: Hordeum murinum [6],90%
same,Herbicidal action against [%] LOLRI,LOLRI: Lolium rigidum [7],100%
same,Herbicidal action against [%] MATIN,[8],30%
same,Herbicidal action against [%] PHBPU,PHBPU: Ipomoea purpurea,80%
same,Herbicidal action against [%] POLCO,[9],80%
same,Herbicidal action against [%] SETVI,SETVI: Setaria viridis; [22],90%
same,Herbicidal action against [%] SETVI,SETVI: Setaria viridis; [23],100%
same,Herbicidal action against [%] STEME,STEME: Stellaria media [10]; [22],90%
same,Herbicidal action against [%] STEME,STEME: Stellaria media [10]; [23],90%
same,Herbicidal action against [%] VERPE,VERPE: Veronica persica [11]; [22],90%
same,Herbicidal action against [%] VERPE,VERPE: Veronica persica [11]; [23],100%
same,Herbicidal action against [%] VIOTR,VIOTR: Viola tricolor; [22],90%
same,Herbicidal action against [%] VIOTR,VIOTR: Viola tricolor; [23],90%
same,Herbicidal action against [%] ABUTH,[12],80%
same,Herbicidal action against [%] ALOMY,[13],90%
same,Herbicidal action against [%] AMARE,[14],80%
same,Herbicidal action against [%] AVEFA,AVEFA: Avena fatua [15],90%
same,Herbicidal action against [%] ECHCG,[16],80%
same,Herbicidal action against [%] HORMU,HORMU: Hordeum murinum [17],90%
same,Herbicidal action against [%] LOLRI,LOLRI: Lolium rigidum [18],90%
same,Herbicidal action against [%] POLCO,[19],90%
same,Herbicidal action against [%] STEME,"STEME: Stellaria media [20]; Second Table C3, superiority with respect to WO 2012/130798, post-emergence, 80 g/ha",80%
same,Herbicidal action against [%] STEME,"STEME: Stellaria media [20]; Table C2, post-emergence, dosage 320 (0.32 kg of active substance per hectare), rated visually after about 3 weeks",80%
same,Herbicidal action against [%] VERPE,VERPE: Veronica persica [21],80%

# Reference: patent US20200369630A1, “HERBICIDALLY ACTIVE 3-PHENYL-5-TRIFLUOROMETHYLISOXAZOLINE-5-CARBOXAMIDES OF CYCLOPENTYLCARBOXYLIC ACIDS AND ESTERS” (Bayer Aktiengesellschaft, priority 2017, published 2020)
